# Experimental data taken from PubChem BioAssay (NCI).
# “And” between values parts separate entries of the source, which are not always exact repeats. Equal entries are not always repeated.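 Growth conditions: 96-well plates. Treatment: test compound, 48 hours, 5 concentrations. Analysis: linear interpolation between bracketing concentrations; unreached endpoints set to highest concentration. The concentration for 50% growth inhibition is given as GI50. TGI is the concentration that stops growth completely.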
# Assays:
# Assay in all cases: NCI-60 cell line screen, 48 h
# HT29 colon = system: HT29 colon
# SF-539 CNS = system: SF-539 CNS
# RPMI-8226 leukemia = system: RPMI-8226 leukemia
# OVCAR-5 ovarian = system: OVCAR-5 ovarian
# HCC-2998 colon = system: HCC-2998 colon
# UO-31 renal = system: UO-31 renal
# UACC-62 melanoma = system: UACC-62 melanoma
# M14 melanoma = system: M14 melanoma
# SK-MEL-28 melanoma = system: SK-MEL-28 melanoma
# CCRF-CEM leukemia = system: CCRF-CEM leukemia
SMILES,GI50 (HT29 colon) [µM],TGI (HT29 colon) [µM],GI50 (SF-539 CNS) [µM],TGI (SF-539 CNS) [µM],GI50 (RPMI-8226 leukemia),TGI (RPMI-8226 leukemia),GI50 (OVCAR-5 ovarian) [µM],TGI (OVCAR-5 ovarian) [µM],GI50 (HCC-2998 colon) [µM],TGI (HCC-2998 colon) [µM],GI50 (UO-31 renal) [µM],TGI (UO-31 renal) [µM],GI50 (UACC-62 melanoma) [µM],TGI (UACC-62 melanoma) [µM],GI50 (M14 melanoma),TGI (M14 melanoma),GI50 (SK-MEL-28 melanoma),TGI (SK-MEL-28 melanoma),TGI (CCRF-CEM leukemia) [µM],GI50 (CCRF-CEM leukemia) [µM]
O=C(O)c1cc2ccccc2c2c3c(ccc12)OCO3,281,791,132,337,139 µM,738 µM,279,> 1000,225,763,116,484,116,279,179 µM,493 µM,167 µM,491 µM,–,–
Nc1nonc1-c1nc2ccccc2n1Cc1ccc(F)cc1,3.55,> 100,8.14,> 100,–,–,> 100,> 100,–,–,5.72,> 100,4.63,> 100,4.64 µM,> 100 µM,7.89 µM,> 100 µM,–,–
Nc1ncnc2c1ncn2C1OC(COS(N)(=O)=O)C(O)C1O (stereo not drawn),–,–,–,–,0.00287 µM and 0.0283 µM,0.265 µM and 0.0661 µM,–,–,–,–,–,–,–,–,0.00214 µM and 0.0181 µM,0.00494 µM and 0.036 µM,0.00225 µM and 0.0221 µM,0.00521 µM and 0.0509 µM,0.173,–
N#Cc1cnc2cc(OC[C@@H](O)CO)c(NC(=O)C3CCCC3)cc2c1Nc1ccc(OCc2cccc(F)c2)c(Cl)c1,1.39,3.84,1.15,2.93,0.728 µM,3.12 µM,7.69,17.2,1.1,3.38,2.21,> 50,–,–,0.765 µM,1.61 µM,0.669 µM,1.42 µM,2.19,0.48
Cc1coc2c1C(=O)C(=O)c1ccccc1-2,–,3.53,–,2.88,–,–,–,3.55,–,3.35,–,10.4,–,3.25,–,2.63 µM,–,3.09 µM,5.49,–
NC(=S)N=Nc1c(O)[nH]c2c(Cl)cc(Cl)cc12,–,42,–,34.6,–,–,–,> 100,–,> 100,–,> 100,–,34.1,–,32.3 µM,–,29.6 µM,> 100,–
CC(C)(C)OC(=O)NCCCCn1c2c(c3ccccc3c1=O)C(=O)c1ccccc1-2,32.4,> 100,25.9,62.8,4.42 µM,> 100 µM,44.7,> 100,–,–,8.29,> 100,10.9,27.8,36.4 µM,> 100 µM,38.2 µM,> 100 µM,> 100,9.52
O=S(=O)(NCCNc1nccc(-c2c(-c3ccc(F)c(O)c3)nc3sccn23)n1)c1ccc(Cl)cc1,–,–,5.09,11.9,–,–,7.31,> 50,2.93,> 50,0.94,> 50,0.967,13,–,–,–,–,–,–
COc1ccc(C(C)c2cc(OC)c(OC)c(OC)c2)cc1 (stereo not drawn),0.107,> 50,–,–,0.209 µM,> 50 µM,0.291,> 50,0.21,> 50,0.409,> 50,0.27,> 50,–,–,25.2 µM,> 50 µM,> 50,0.182
CCOC(=O)C(=O)Nc1cc(Cl)c(Cl)cc1Cl,–,> 100,–,> 100,–,> 100 µM,–,> 100,–,> 100,–,> 100,–,> 100,–,> 100 µM,–,> 100 µM,–,–
CCN(CC)c1c(-c2ccccc2)n[nH]c1C(=O)OC,19.4,33.5,20.1,36.5,14.6 µM,38.4 µM,31,> 100,–,–,46.5,> 100,15.5,37.7,30.1 µM,86.9 µM,22.2 µM,> 100 µM,71,22.8
NCCCOc1cc2ccccc2cc1C(=O)Nc1ccc(Cl)cc1OC(=O)c1cc2ccccc2cc1OCCCN,0.266,–,0.345,0.9,–,–,1,2.47,1.43,2.82,0.179,0.433,1.44,2.85,0.321 µM,1.26 µM,0.382 µM,0.949 µM,1.39,0.413
O=C1C(=C2CCCC2)CCC1CN1CCCCC1 (stereo not drawn),–,42.1,–,50.1,–,–,–,39.8,–,29.8,–,> 100,–,34,–,29.6 µM,–,31.3 µM,36.6,–
N#Cc1ccc(-c2c(-c3ncn[nH]3)sc(N3CCOCC3)c2C#N)c(F)c1,0.363,18.3,0.571,4.53,4.5 µM,48.6 µM,0.455,10.5,1.08,17.2,0.191,11.2,0.384,2.64,–,–,0.458 µM,5.33 µM,> 100,3.88
CCOC(=O)C1C=C2O[C@@H]3OC4(CCCCC4)O[C@@H]3C2C2C(=O)CCC(=O)[C@@]12C(=O)OC (stereo partly drawn),–,–,–,–,–,> 100 µM,–,> 100,–,> 100,–,> 100,–,> 100,–,> 100 µM,–,> 100 µM,> 100,–
O=C(O)C1CC=CCC1C(=O)Nc1cccc(O)c1 (stereo not drawn),–,> 100,–,> 100,–,> 100 µM,–,> 100,–,> 100,–,> 100,–,> 100,–,> 100 µM,–,> 100 µM,–,–
CC(=O)Oc1ccc2c(c1)[C@@]1(C)CCCC(C)(C)[C@@H]1CC2,31.7,> 100,–,–,12.1 µM,30.3 µM,22.3,40.5,–,–,31.3,79.9,17.6,32.8,18.2 µM,33.7 µM,19.3 µM,49.8 µM,> 100,87.4
